Read-outs that look alike come from different tables or passages of the source.
Legend:
[1] = Human liver microsome stability; type: in vitro ADME; conditions: human liver microsomes, pH 7.4
[2] = tested on: A549; assay: Cell proliferation-inhibiting activity (ATP in viable cells, CellTiter-Glo), A549; type: cell-based, human; conditions: A549, 96 h, read-out: A549 IC50
[3] = molecular target: T1, BRAF (Homo sapiens, UniProt P15056); assay: BRAF-inhibiting activity, time-resolved fluorescence-fluorescence resonance energy transfer assay; type: biochemical
T1 construct: purchased Eurofins Genomics KK; (BRAF); Thermo Fisher Scientific Inc. (MEK1)
Description: The BRAF-inhibiting activity of the compounds listed in Table 3 below was evaluated by the time-resolved fluorescence-fluorescence resonance energy transfer assay as described below.

[4] = tested on: NCI-H2122; assay: Cell proliferation-inhibiting activity (ATP in viable cells, CellTiter-Glo), NCI-H2122; type: cell-based, human; conditions: NCI-H2122, 96 h, read-out: NCI-H2122 IC50
[5] = molecular target: T2, MEK1 (Homo sapiens, UniProt Q02750); assay: MEK1-inhibiting activity, fluorescent polarization method (CRAF/MEK1/ERK2 cascade, IMAP); type: biochemical; conditions: Table 3; read-out: MEK1 IC50
T2 construct: purchased Thermo Fisher Scientific Inc. (MEK1, CRAF); Carna Biosciences, Inc. (ERK2)
Description: The MEK1-inhibiting activity of the compounds listed in Table 3 below were evaluated by the fluorescent polarization method as described below.

[6] = tested on: Calu-6; assay: Cell proliferation-inhibiting activity (ATP in viable cells, CellTiter-Glo), Calu-6; type: cell-based, human; conditions: Calu-6, 96 h, read-out: Calu-6 IC50
[7] = human lung cancer cells, 4 days

T1 sequence (P15056 417-766 limits assumed): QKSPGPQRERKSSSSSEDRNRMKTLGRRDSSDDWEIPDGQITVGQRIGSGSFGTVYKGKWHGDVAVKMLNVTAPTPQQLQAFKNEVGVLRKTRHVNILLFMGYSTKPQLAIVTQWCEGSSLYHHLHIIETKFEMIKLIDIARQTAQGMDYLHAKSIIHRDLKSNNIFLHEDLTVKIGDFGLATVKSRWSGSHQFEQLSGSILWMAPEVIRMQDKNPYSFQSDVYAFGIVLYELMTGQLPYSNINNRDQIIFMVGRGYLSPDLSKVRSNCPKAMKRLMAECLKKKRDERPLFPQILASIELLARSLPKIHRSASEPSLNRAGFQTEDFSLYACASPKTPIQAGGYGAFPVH
T2 sequence (Q02750 whole entry): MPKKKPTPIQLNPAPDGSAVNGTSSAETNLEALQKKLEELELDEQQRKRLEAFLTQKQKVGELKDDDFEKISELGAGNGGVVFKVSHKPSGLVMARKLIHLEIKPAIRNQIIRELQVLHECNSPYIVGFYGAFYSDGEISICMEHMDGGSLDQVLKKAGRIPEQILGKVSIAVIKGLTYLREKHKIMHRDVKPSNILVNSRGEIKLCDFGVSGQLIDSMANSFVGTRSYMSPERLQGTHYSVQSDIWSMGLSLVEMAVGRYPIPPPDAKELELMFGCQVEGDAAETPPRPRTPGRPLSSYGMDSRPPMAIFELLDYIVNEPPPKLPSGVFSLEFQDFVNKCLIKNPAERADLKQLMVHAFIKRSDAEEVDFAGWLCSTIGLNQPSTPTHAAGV

Compound | microsomal CLint at 0.99 µM [1] [µL/min/mg] | IC50 ([2]; Homo sapiens) [nM] | IC50 ([3]; Table 3; read-out: BRAF IC50) [nM] | IC50 ([4]; Homo sapiens) [nM] | IC50 [5] [nM] | IC50 ([6]; Homo sapiens) [nM] | IC50 [2, 7] [nM] | IC50 ([3]; read-out: BRAF IC50; Table 3) [nM] | IC50 [4, 7] [nM] | IC50 [6, 7] [nM]
CNS(=O)(=O)Nc1nccc(Cc2cc(C(N)=O)c(Nc3ccc(SC)cc3F)c(F)c2F)c1F [Compound A-18, 3,4-difluoro-5-[[3-fluoro-2-(methylsulfamoylamino)pyridin-4-yl]methyl]-2-(2-fluoro-4-methylsulfanylanilino)benzamide] | 53 | 5 | 4 | 2 | 8 | 7 | – | – | – | –
COCC(C)(C)NS(=O)(=O)Nc1nccc(Cc2cc(C(N)=O)c(Nc3ccc(I)cc3F)c(F)c2F)c1F [Compound A-24, 3,4-Difluoro-2-(2-fluoro-4-iodoanilino)-5-[[3-fluoro-2-[(1-methoxy-2-methylpropan-2-yl)sulfamoylamino]pyridin-4-yl]methyl]benzamide] | 48 | – | – | – | 129 | – | 11 | 3 | 4 | 51
CNS(=O)(=O)Nc1nccc(Cc2cc(C(N)=O)c(Nc3ccc(I)cc3F)c(F)c2F)c1F [Compound A-25, 3,4-difluoro-2-(2-fluoro-4-iodoanilino)-5-[[3-fluoro-2-(methylsulfamoylamino)pyridin-4-yl]methyl]benzamide] | 7 | – | – | – | 5 | – | 0.5 | 2 | 0.2 | 2
NC(=O)c1cc(Cc2ccnc(NS(=O)(=O)NC3CC3)c2F)c(F)c(F)c1Nc1ccc(I)cc1F [Compound A-30, 5-[[2-(cyclopropylsulfamoylamino)-3-fluoropyridin-4-yl]methyl]-3,4-difluoro-2-(2-fluoro-4-iodoanilino)benzamide] | 10 | – | – | – | 9 | – | 3 | 8 | 1 | 8
CC(C)NS(=O)(=O)Nc1nccc(Cc2cc(C(N)=O)c(Nc3ccc(I)cc3F)c(F)c2F)c1F [Compound A-31, 3,4-difluoro-2-(2-fluoro-4-iodoanilino)-5-[[3-fluoro-2-(propan-2-ylsulfamoylamino)pyridin-4-yl]methyl]benzamide] | 9 | – | – | – | 49 | – | 20 | 6 | 7 | 31
COCCNS(=O)(=O)Nc1nccc(Cc2cc(C(N)=O)c(Nc3ccc(I)cc3F)c(F)c2F)c1F [Compound A-33, 3,4-difluoro-2-(2-fluoro-4-iodoanilino)-5-[[3-fluoro-2-(2-methoxyethylsulfamoylamino)pyridin-4-yl]methyl]benzamide] | 6 | – | – | – | 10 | – | 27 | 2 | 8 | 68
CC(C)CNS(=O)(=O)Nc1nccc(Cc2cc(C(N)=O)c(Nc3ccc(I)cc3F)c(F)c2F)c1F [Compound A-34, 3,4-difluoro-2-(2-fluoro-4-iodoanilino)-5-[[3-fluoro-2-(2-methylpropylsulfamoylamino)pyridin-4-yl]methyl]benzamide] | 17 | – | – | – | 81 | – | 27 | 3 | 12 | 79
CC1(NS(=O)(=O)Nc2nccc(Cc3cc(C(N)=O)c(Nc4ccc(I)cc4F)c(F)c3F)c2F)CCC1 [Compound A-35, 3,4-difluoro-2-(2-fluoro-4-iodoanilino)-5-[[3-fluoro-2-[(1-methylcyclobutyl)sulfamoylamino]pyridin-4-yl]methyl]benzamide] | 15 | – | – | – | 66 | – | 21 | 28 | 4 | 34
NC(=O)c1cc(Cc2ccnc(NS(=O)(=O)NCC3CC3)c2F)c(F)c(F)c1Nc1ccc(I)cc1F [Compound A-36] | 18 | – | – | – | 74 | – | 26 | 5 | 17 | 61
CC(C)(C)NS(=O)(=O)Nc1nccc(Cc2cc(C(N)=O)c(Nc3ccc(I)cc3F)c(F)c2F)c1F [Compound A-37, 5-[[2-(tert-Butylsulfamoylamino)-3-fluoropyridin-4-yl]methyl]-3,4-difl uoro-2-(2-fluoro-4-iodoanilino)benzamide] | 10 | – | – | – | 50 | – | 21 | 7 | 7 | 26
CCNS(=O)(=O)Nc1nccc(Cc2cc(C(N)=O)c(Nc3ccc(I)cc3F)c(F)c2F)c1F [Compound A-40, 5-[[2-(ethylsulfamoylamino)-3-fluoropyridin-4-yl]methyl]-3,4-d ifluoro-2-(2-fluoro-4-iodoanilino)benzamide] | 2 | – | – | – | 19 | – | 4 | 2 | 2 | 12
CCCNS(=O)(=O)Nc1nccc(Cc2cc(C(N)=O)c(Nc3ccc(I)cc3F)c(F)c2F)c1F [Compound A-41, 3,4-difluoro-2-(2-fluoro-4-iodoanilino)-5-[[3-fluoro-2-(propylsulfamoylamino)pyridin-4-yl]methyl]benzamide] | 5 | – | – | – | 29 | – | 12 | 7 | 2 | 8
NC(=O)c1cc(Cc2ccnc(NS(=O)(=O)NCCF)c2F)c(F)c(F)c1Nc1ccc(I)cc1F [Compound A-42, 3,4-difluoro-5-[[3-fluoro-2-(2-fluoroethylsulfamoylamino)pyridin-4-yl]methyl]-2-(2-fluoro-4-iodoanilino)benzamide] | 6 | – | – | – | 18 | – | 9 | 6 | 7 | 68
CNS(=O)(=O)Nc1nccc(Cc2cc(C(=O)NOCCO)c(Nc3ccc(I)cc3F)c(F)c2F)c1F [Compound B-1, 3,4-difluoro-2-(2-fluoro-4-iodoanilino)-5-[[3-fluoro-2-(methylsulfamoylamino)pyridin-4-yl]methyl]-N-(2-hydroxyethoxy)benzamide] | 15 | – | – | – | 2 | – | 6 | 5 | 2 | 11
CNS(=O)(=O)Nc1nccc(Cc2cc(C(=O)NOCCOC)c(Nc3ccc(I)cc3F)c(F)c2F)c1F [Compound B-2, 3,4-Difluoro-2-(2-fluoro-4-iodoanilino)-5-[[3-fluoro-2-(methylsulfamoylamino)pyridin-4-yl]methyl]-N-(2-methoxyethoxy)benzamide] | 53 | – | – | – | 4 | – | 1 | 3 | 1 | 7
NC(=O)c1cc(Cc2ccnc(NS(N)(=O)=O)c2F)c(F)c(F)c1Nc1ccc(I)cc1F [Compound B-10, 3,4-Difluoro-2-(2-fluoro-4-iodoanilino)-5-[[3-fluoro-2-(sulfamoylamino)pyridin-4-yl]methyl]benzamide] | 3 | – | – | – | 22 | – | 72 | 11 | 8 | 33
NC(=O)c1cc(Cc2ccnc(NS(=O)(=O)NC3CC3)c2F)c(F)c(F)c1Nc1ccc(I)cc1Cl [Compound B-11, 2-(2-Chloro-4-iodoanilino)-5-[[2-(cyclopropylsulfamoylamino)-3-fluor opyridin-4-yl]methyl]-3,4-difluorobenzamide] | 26 | – | – | – | 19 | – | 18 | 3 | 16 | 43
O=C(NC1CC1)c1cc(Cc2ccnc(NS(=O)(=O)NC3CC3)c2F)c(F)c(F)c1Nc1ccc(I)cc1Cl [Compound B-12, 2-(2-Chloro-4-iodoanilino)-N-cyclopropyl-5-[[2-(cyclopropylsulfamoylamino)-3-fluoropyridin-4-yl]methyl]-3,4-difluorobenzamide] | 39 | – | – | – | 61 | – | 14 | 8 | 8 | 30
CC(C)(C)ONC(=O)c1cc(Cc2ccnc(NS(=O)(=O)NC3CC3)c2F)c(F)c(F)c1Nc1ccc(I)cc1Cl [Compound B-13, 2-(2-Chloro-4-iodoanilino)-5-[[2-(cyclopropylsulfamoylamino)-3-fluor opyridin-4-yl]methyl]-3,4-difluoro-N-[(2-methylpropan-2-yl)oxy]benzamide] | 66 | – | – | – | 13 | – | 26 | 10 | 14 | 34
NC(=O)c1cc(Cc2ccnc(NS(N)(=O)=O)c2)c(F)c(F)c1Nc1ccc(I)cc1F [Compound C-1, 3,4-Difluoro-2-(2-fluoro-4-iodoanilino)-5-[[2-(sulfamoylamino)pyridin-4-yl]methyl]benzamide] | 10 | – | – | – | 72 | – | 7 | 4 | 4 | 16

Source: patent EP4725941A1, “ARYLAMIDE DERIVATIVE HAVING ANTITUMOR ACTIVITY” (priority 2020, dated 2021)
